Assay results reported in patent US6387415B1, “Sequestered metal biocides using ionic polymeric stabilizing agents” (Bio-Lab, Inc., priority 1995, dated 2002).
Read-outs that look alike come from different tables or passages of the source.

Tests used:
Type in all cases: cell-based
[1] = tested on: E. Coli; experiment: MIC study against bacteria on microtiter plates; design: key: (−) indicates no bacterial growth was seen; (+) indicates bacterial growth was seen
Method: (§1) MIC data gives the minimum concentration of biocide needed to prevent growth of bacteria in a culture. Individual MIC's were determined by screening on microtiter plates. In order to determine the MIC's, 50 μl of phosphate water is added to each row in columns 2-12. Next, 100 μl of a biocide is added to column […]). Fifty microliters of the biocide is removed from column 1 and serially diluted from columns 2-11 using an eight tip pipettor (octapette). Finally, 50 μl of microbial inoculum is added to columns 1-11 (all rows) and column 12 (row A and E only). Column 12 serves as the row for sterility and viability controls. Bacterial inoculua contain about 1×10^9 colony forming units (cfu) per ml are prepared in 1⁄5 strength Nutrient broth. Bacterial microtiter plates are incubated at 37° C. for 48 hours. MIC's are determined by visual observation of the plates.

[2] = tested on: S. aureus; experiment: MIC study against bacteria on microtiter plates; design: key: (−) indicates no bacterial growth was seen; (+) indicates bacterial growth was seen
Method: as §1

[3] = tested on: Chlorella sp.; experiment: MIC study against algae (visual growth after two weeks); design: key: (−) indicates no algae growth was seen; (+) indicates algae growth was seen
Method: (§2) MIC data gives the minimum concentration of biocide needed to prevent growth of the algae in a culture.
(§3) The MIC studies are performed in sterile glassware using both viability and sterility controls. An algae suspension is added to test tubes containing the appropriate amounts of test biocide and the tubes are incubated for two weeks under fluorescent lights (on a “12 hour on”/“12 hour off” lighting regimen). The cultures are then measured by visual observation to determine the presence of living algae.

[4] = tested on: Phormidium sp.; experiment: as above; design: key: (−) indicates no algae growth was seen; (+) indicates algae growth was seen
Method: as §2, §3

[5] = tested on: Phormidium inudatum; experiment: as above; design: key: (−) indicates no algae growth was seen; (+) indicates algae growth was seen
Method: as §2, §3

| Structure (SMILES) | bacterial growth, MIC results against E. Coli [1] | bacterial growth, MIC results against S. aureus [2] | algae growth, MIC results against Chlorella sp. [3] | algae growth, MIC results against Phormidium sp. [4] | algae growth, MIC results against Phormidium inudatum [5] | bacterial growth, MIC results against E. Coli ([1]; Silver Conc. 0.39 ppm) | bacterial growth, MIC results against E. Coli ([1]; Silver Conc. 1.56 ppm) | bacterial growth, MIC results against E. Coli ([1]; Silver Conc. 3.1 ppm) | bacterial growth, MIC results against E. Coli ([1]; Silver Conc. 12.5 ppm) | bacterial growth, MIC results against E. Coli ([1]; Silver Conc. 25 ppm) | bacterial growth, MIC results against S. aureus ([2]; Silver Conc. 0.39 ppm) | bacterial growth, MIC results against S. aureus ([2]; Silver Conc. 0.78 ppm) | bacterial growth, MIC results against S. aureus ([2]; Silver Conc. 1.56 ppm) | bacterial growth, MIC results against S. aureus ([2]; Silver Conc. 12.5 ppm) | bacterial growth, MIC results against S. aureus ([2]; Silver Conc. 25 ppm) |
| --- | --- | --- | --- | --- | --- | --- | --- | --- | --- | --- | --- | --- | --- | --- | --- |
| O=S(=O)([O-])[O-].[Cu+2] [Unsequestered Copper, copper sulfate] | − and + | − and + | − | − | − |  |  |  |  |  |  |  |  |  |  |
| [Ag] [Unsequestered Silver] |  |  |  |  |  | + | + | − | − | − | + | + | − | − | − |
